{
  "source": "patent EP1477168A1",
  "about": "“Use of cabergoline in the treatment of restless leg syndrome” (priority 1998, dated 1999)",
  "key": {"[1]": {"test_system": "restless leg syndrome", "details": "in vivo; cited from earlier work"}, "[2]": {"test_system": "RLS", "details": "cited from earlier work"}, "[3]": {"test_system": "restless legs syndrome and periodic leg movements in sleep", "details": "cited from earlier work; for patients who responded: consecutive series of patients"}, "[4]": {"test_system": "RLS", "details": "treatment of RLS; quote from www.rls.org, March 1999; cited from earlier work"}, "[5]": {"assay": "Half-life and duration of action", "assay_type": "in vivo", "details": "as stated by the applicant, no method given"}, "[6]": {"test_system": "restless legs syndrome", "assay": "12-week open label pilot trial: patients' subjective ratings and sleep diaries", "assay_type": "in vivo", "method": "(§1) Following a 2-week baseline period, all patients were treated with cabergoline in an open trial for 12 weeks. Apart from levodopa, patients had to stop taking any medication known to have positive or negative effect on RLS two weeks before baseline (i.e., other dopamine agonists, benzodiazepines, opioids or other psychotropic agents). Patients who were on levodopa therapy were allowed to either stop levodopa prior to study entry or to continue, taper or discontinue levodopa during the study. To prevent well known peripheral dopaminergic side-effects such as nausea, vomiting, vertigo and arterial hypotension domperidone (not available in the United States) was comedicated initially and also tapered if possible. […] Neurological case history, examination, electrocardiogramm, chest x-ray and polysomnography were performed to ensure that selection criteria were fulfilled. A two-night PSG (including one night of adaptation) was performed to evaluate the diagnosis and inclusion/exclusion criteria regardless if patients were on or off levodopa. After a 12-week treatment period patients were studied again for one night in the sleep laboratory. Subjective ratings were obtained at baseline, week 4, week 8 and at the endpoint after 12 weeks. In addition patients were monitored by phone calls to note any adverse events and to determine whether to increase the dosage of the study drug, to decrease levodopa and to decrease domperidone. The time schedule of phone calls was variable and the frequency mostly dependent on the presence of simultaneous levodopa therapy.\nDosing. Study medication was available in tablets containing 0.5 mg, 1 mg or 2 mg Cabergoline (Cabaseril®, Pharmacia & Upjohn, Erlangen, Germany). Medication was taken 2 hours prior to bedtime. Initial therapy consisted of one 0.5 mg tablet. […] The increased dose could be decreased again if necessary. All patients were initially comedicated with domperidone 20 mg t.i.d. which could be tapered and stopped if possible. Subjects who were pretreated with levodopa were asked to decrease levodopa simultaneously if possible.\nSubjective ratings. After each night of recording and at each visit at week 2 and 4, patients rated the severity of illness (normal to extremely ill), the therapeutic effects by rating their global improvements by use of the Patients Global Impressions (general condition very much worse to very much better), the severity of RLS symptoms during the time of falling asleep, during the night and during the day (scale: 0 = not present to 10 = very strong) and sleep satisfaction (very unsatisfied to very satisfied). In addition patients rated their quality of life, concerning well being and complaints during the previous week, using modified 50-mm Hamburger Visual Analogue Scale. Patients also filled in a sleep diary at each study visit rating the following symptoms: global assessment of sleep (very bad to very good night), sleep latency, sleep time, frequency of awakenings and urge to move the legs at time falling asleep, during the night and during the day (scale: 0 = not present to 10 = very strong)."}, "[7]": {"test_system": "restless legs syndrome", "assay": "12-week open label pilot trial: safety and augmentation", "assay_type": "in vivo, patients", "method": "as §1\nSafety. Safety of Cabergoline was assessed to the type and frequency of adverse event, clinically significant changes in laboratory data or ECG and premature discontinuation of study participation. Adverse events were classified as serious versus nonserious and characterized by intensity, relationship to drug treatment, frequency, course and therapeutic intervention."}, "[8]": {"test_system": "restless legs syndrome", "assay": "12-week open label pilot trial: physician's rating (Clinical Global Impressions)", "assay_type": "in vivo", "details": "under cabergoline, 9 patients", "method": "as §1, with “Subjective ratings were obtained at baseline, week 4, week 8 and at the endpoint after 12 weeks.” left out, “The time schedule of phone calls was variable and the frequency mostly dependent on the presence of simultaneous levodopa therapy.” left out"}, "[9]": {"test_system": "restless legs syndrome", "assay": "12-week open label pilot trial of cabergoline in RLS patients: polysomnography", "assay_type": "in vivo", "method": "In a 12-week open label pilot trial, the effects of a single evening cabergoline-dose on symptoms of RLS were investigated in 9 patients and the results presented here. See also, Stiasny K., Oertel W.H., Schüler P. (1998). Cabergoline in RLS, ENS, Nice, Abstract.\nEfficacy was assessed by polysomnography and subjective ratings. All patients previously had experienced partial benefit of a levodopa therapy (either standard or standard and slow release) and in part developed augmentation under levodopa therapy. At study entry all patients were comedicated with domperidone (20 mg TID) and five were still under levodopa therapy (400-800 mg). At the endpoint all patients were on cabergoline monotherapy (mean dose 2.1 mg, range 1 to 4 mg). Domperidone was stopped in all patients due to excellent tolerability. […] Total sleep time was prolonged, sleep latency shortened and sleep efficiency increased. All patients reported significant relief or became free of RLS symptoms.\nas §1\nInclusion criteria. Patients were included if they fulfilled the minimal diagnostic criteria according to the International RLS Study Group. After rating clinical symptoms at baseline, patients were referred to polysomnography without any RLS specific treatment other than levodopa. Patients were included if they had more than five PLM per hour of time-in-bed (PLM index) and a sleep efficiency index (total sleep time per hour time-in-bed) of less than 85%.\nExclusion criteria. Patients with signs of any other sleep disorder on PSG, especially sleep apnea syndrome (respiratory disturbances index > 5 per hour total sleep time), were excluded. Subjects receiving neuroleptic, antidepressant or other psychotropic medications or with any severe additional illness (with special consideration to pulmonary fibrosis) or drug abuse were also excluded. […]"}},
  "note": "Structures can show the parent of a compound that is named as a salt.",
  "data": [
    {"smiles": "CC(C)C[C@H]1C(=O)N2CCC[C@H]2[C@]2(O)O[C@](NC(=O)[C@@H]3C=C4c5cccc6[nH]c(Br)c(c56)C[C@H]4N(C)C3)(C(C)C)C(=O)N12", "note": "[Bromocriptine]", "values": [
      {"measurement": "patients reporting better subjective improvement in restlessness and paresthesia compared to placebo", "setting": "[1]", "value": "5 of 6"},
      {"measurement": "side effects reported", "setting": "[1]", "value": "transient nasal stuffiness and lightheadedness in one patient"}
    ]},
    {"smiles": "N[C@@H](Cc1ccc(O)c(O)c1)C(=O)O", "note": "[L-dopa]", "values": [
      {"measurement": "RLS patients with augmentation who required a medication change", "setting": "[2]; Allen, Earley, Sleep 1996", "value": 50, "unit": "%"},
      {"measurement": "augmentation in PLMS patients", "setting": "[2]; Allen, Earley, Sleep 1996", "value": 31, "unit": "%"},
      {"measurement": "augmentation in RLS patients", "setting": "[2]; Allen, Earley, Sleep 1996", "value": 82, "unit": "%"},
      {"measurement": "RLS patients with augmentation reporting 3 major symptoms of increased severity", "setting": "[2]; of the 22 RLS patients with augmentation", "value": 100, "unit": "%"},
      {"measurement": "patients who responded", "setting": "[3]", "value": "21 of 51"}
    ]},
    {"smiles": "CCCN1C[C@H](CSC)C[C@@H]2c3cccc4[nH]cc(c34)C[C@H]21", "note": "[Pergolide]", "values": [
      {"measurement": "patients who responded", "setting": "[3]", "value": "19 of 26"},
      {"measurement": "patients who suffered from augmentation", "setting": "[3]; patients treated with pergolide", "value": 15, "unit": "%"},
      {"measurement": "patients who had augmentation", "setting": "[3]; pergolide patients", "value": "4 of 26"}
    ]},
    {"smiles": "CCCN1C[C@H](CSC)C[C@@H]2c3cccc4[nH]cc(c34)C[C@H]21", "note": "[Permax®, pergolide mesylate]", "values": [
      {"measurement": "people who develop augmentation", "setting": "[4]", "value": 10, "unit": "%"}
    ]},
    {"smiles": "C=CCN1C[C@H](C(=O)N(CCCN(C)C)C(=O)NCC)C[C@@H]2c3cccc4[nH]cc(c34)C[C@H]21", "note": "[cabergoline, 1((6-allylergolin-8β-yl) -carbony.)-1-(3-(dimethylamino)propyl)-3-ethylurea]", "values": [
      {"measurement": "half life", "setting": "[5]", "value": "> 65", "unit": "h"},
      {"measurement": "half-life", "setting": "[5]; human, in vivo", "value": 65, "unit": "h"},
      {"measurement": "relief of RLS symptoms reported by patients", "setting": "[6]; 12 weeks, 9 patients", "value": "All patients reported a significant relief or became free of RLS symptoms"},
      {"measurement": "severity of illness in PGI (number of patients)", "setting": "[6]; cabergoline monotherapy, 9 patients, baseline extremely (2), very (4) or markedly (3) ill", "value": "normal (5) or borderline (2) in PGI, only two as moderately ill"},
      {"measurement": "quality of life (Hamburger Visual Analogue Scales)", "setting": "[6]; compared with baseline", "value": "much better than under baseline conditions"},
      {"measurement": "sleep satisfaction (number of patients)", "setting": "[6]; endpoint, 9 patients, baseline very (1), markedly (6) or moderately (2) unsatisfied", "value": "2 were very, 4 markedly, 1 moderately satisfied and only 2 moderately unsatisfied"},
      {"measurement": "had to get up", "setting": "[6]; sleep diaries, cabergoline monotherapy, baseline 2.1", "value": 0.6, "unit": "times per night"},
      {"measurement": "General condition in PGI (number of patients)", "setting": "[6]; under cabergoline, 9 patients", "value": "very much better (6) or much better (3)"},
      {"measurement": "global quality of the previous night (sleep diaries)", "setting": "[6]; zero (very bad) to 10 (very good) scale, endpoint, baseline 3.1", "value": 6.9},
      {"measurement": "augmentation under cabergoline", "setting": "[7]; 12-week treatment period", "value": "we did not observe augmentation in our patients"},
      {"measurement": "laboratory data and ECG", "setting": "[7]; 12 weeks", "value": "No significant changes"},
      {"measurement": "adverse events probably related to the study drug, total", "setting": "[7]; 12 weeks, 9 patients", "value": 8},
      {"measurement": "serious side effects and withdrawals", "setting": "[7]; 12 weeks, 9 patients", "value": "no serious side effects and no patient withdrew from the study"},
      {"measurement": "patients reporting adverse events probably related to the study drug", "setting": "[7]; of 9 patients", "value": 5, "unit": "patients"},
      {"measurement": "reversibility of augmentation evoked by levodopa", "setting": "[7]; patients who had developed augmentation under levodopa", "value": "reversible under cabergoline in all of our patients"},
      {"measurement": "Physician's rating of general condition (global improvement, number of patients)", "setting": "[8]", "value": "very much better in 5, much better in 3 and minimally better in 1 patients"},
      {"measurement": "PLM arousal", "setting": "[9]; Week 12, baseline 51.7 ± 42.3", "value": "6.4 ± 11.2"},
      {"measurement": "PLM arousal index", "setting": "[9]; number of PLM arousals per hour total sleep time, Week 12, baseline 10.4 ± 7.8", "value": "1.0 ± 1.7"},
      {"measurement": "PLM awakening", "setting": "[9]; number of PLM awakenings, Week 12, baseline 9.6 ± 4.9", "value": "1.0 ± 2.0"},
      {"measurement": "PLM index", "setting": "[9]; number of PLM per hour time in bed, Week 12, baseline 27.7 ± 17.1", "value": "3.6 ± 5.3"},
      {"measurement": "No. Of PLM", "setting": "[9]; total number of PLM during time in bed, Week 12, cabergoline monotherapy, baseline 195.8 ± 109.1", "value": "26.4 ± 40.2"}
    ]}
  ]
}
